The values below come from patent US12505549B1, “Microscopy image analyses for disease modeling” (Insitro, Inc., priority 2020, dated 2025).

What all share (assay type): cell-based
Assay [1] concerns HepG2 and A549 cell lines. Description: Cell painting morphological manifold of compound-treated cancer cell lines (deep CNN). The conditions noted are these: for clustering in manifold by phenotypic effect (FIG. 16H): previously unseen drugs versus previously seen drugs; for clustering in morphological embedding (FIGS. 18A, 18B): 48 hours incubation, held-out versus training compounds. On the procedure:
Immortalized cancer cell lines A549 and HepG2 were cultured in T150 flasks and harvested above 60% confluency. The cells were counted on a cell counter (Countess by ThermoFisher) the cell suspension was adjusted to 2000 cells per 50 μL well of a 384 well PDL coated Cell Carrier Ultra (Perkin Elmer) plates. The cells were incubated overnight in a 37 C 5% CO2 incubator and then dosed with our compound collection (at multiple concentrations in log space) in DMSO with a Labcyte Echo from Echo qualified PP2.0 plates. After dosing the cells were incubated for 48 hours in a 37 C 5% CO2 incubator. After the incubation period the plates were stained with Mito-tracker by removing the cell media, washing with PBS on a EL406 plate washer (Biotek), then adding diluted 1 mM stock concentration mitotracker dye in cell culture media to each well with a PRIME liquid handler (HighRes Biosciences). The plates were incubated for 30 minutes and then washed 1× with PBS. Formaldehyde was added to each well of each plate to fix the cells and incubated for 20 minutes and then washed 5× with PBS. 0.1% Triton in PBS was added to the plates and incubated for 15 minutes then washed 2× with PBS and a stain mixture was added to all wells of the plates. The stain mixture included 5 μg/mL Hoechst, 100 μg/mL Concanavalin Alexa Fluor 488 conjugate, 3 uM SYTO 14 green fluorescent nucleic acid stain, 5 uL/mL Phalloidin/Alexa Fluor 568 conjugate, and 1.5 μg/mL Wheat Germ Agglutinin Alexa Fluor 555 conjugate in HBSS with BSA. The plates were incubated for 30 minutes with the stain solution and then washed 4× with PBS. The plates were then imaged in a Perkin Elmer Opera Phenix microscope with 16 images taken per well for all stain wavelengths.
This is a classification task where the goal is to identify which compound was used to perturb the cells in a single well. A single well is split into 16 different fields of views (FOV) which are captured by the microscope. The raw FOV images were preprocessed by correcting the illumination. The FOV images were further cropped into smaller squares so that we can fit into memory during the training of deep convolutional neural network (CNN) models. The Hoechst channel was used to detect the nucleus and then make a square around the detected nucleus.
A deep convolutional neural network was implemented to model the classification task. It was a 150-way classification task. The residual networks (ResNets) was used as the base feature extractor network with a fully connected linear network on top to perform the classification. Standard augmentations were implemented which improved the performance and removed experimental biases. For example, intensity based augmentations like gamma contrast are helpful in removing experimental biases (batch effects). For the mechanism of action identification, some compounds were omitted (˜30 compounds out of 150) during training. During inference, the unseen compounds were embedded closer to the expected mechanism of action cluster along with the seen compounds. FIG. 18A depicts example embeddings with similar drugs clustered more closely together. Here, lovastatin is a held out, unseen drug whereas atorvastatin is a drug used for training. […] In accordance with the methodology of Example 11 (e.g., FIGS. 16A-16D) described above, using embeddings/predictions, the candidate therapy is analyzed to predict its effect (e.g., effect in reverting disease phenotype back to healthy), and further validated in vitro.

Another assay has as its system knockout treated cells. Description: Microscopy tile embeddings (deep neural network, UMAP) of WT and KO lines with treatment. The conditions noted are these: UMAP projector calculated on untreated WT/KO tile embeddings. The text has this: FIG. 16C depicts an example embedding showing phenotypic distinction between wild type and knockout cells. FIG. 16C was generated by projecting embeddings extracted from a deep neural network down to two dimensions using UMAP. The neural network model was trained in a supervised manner to discriminate between sick/healthy based on labels for WT and KO lines respectively. Each point in the figure corresponds to a tile of the original microscopy image. The points represented here are only for the WT and KO groups without treatment.
FIG. 16D depicts the use of embeddings for validating known effects of treatments (e.g., rapamycin and everolimus). The following figure uses the same UMAP projector calculated on tile embeddings of WT/KO with no treatment to project the embeddings representing treatment groups into the same space.

Assay [2] relates to human cortical excitatory neurons. Description: Neuropaint high-content imaging of neurons exposed to small molecule compounds, ML embeddings. Conditions: 3 concentrations; DAPI, LV-Syn-GFP, Actin, Mito-tracker stains.
Protocol: DoxNGN2 iPSCs were plated at two different seeding densities (1k and 6k cells) and further differentiated into human cortical excitatory neurons. Different populations of neurons were exposed to 3 different concentrations of small molecules including rotenone, everolimus, loxapine, phorbol 12-myristate 13-acetate (PMA), staurosporine, rapamycin, BIO, and blebbistatin. Neurons were also treated with controls including phosphate buffered saline and dimethyl sulfoxide (DMSO). Following treatment, phenotypic assay data was captured from the treated neurons by performing high-content imaging (e.g., Neuropaint).

Regarding `COc1ccc(-c2ccc3c(N4CCOC[C@@H]4C)nc(N4CCOC[C@@H]4C)nc3n2)cc1CO` [AZD 8055], in assay [1], the “clustering in manifold by phenotypic effect (FIG. 16H)” value (“clustering in manifold” for short) is recorded as “clustered proximity to previously seen drugs”.

As to `COc1cc(C(=O)O)ccc1NC(=O)[C@@H]1N[C@@H](CC(C)(C)C)[C@](C#N)(c2ccc(Cl)cc2F)[C@H]1c1cccc(Cl)c1F` [RG7388], the “clustering in manifold” value in assay [1] was “clustered proximity to previously seen drugs”.

Consider `CC(C)c1c(C(=O)Nc2ccccc2)c(-c2ccccc2)c(-c2ccc(F)cc2)n1CC[C@@H](O)C[C@@H](O)CC(=O)O` [atorvastatin], for which the “clustering in morphological embedding (FIGS. 18A, 18B)” value in assay [1] was “clustered close together”.

For the molecule `CO[C@H]1C[C@@H]2CC[C@@H](C)[C@@](O)(O2)C(=O)C(=O)N2CCCC[C@H]2C(=O)O[C@H]([C@H](C)C[C@@H]2CC[C@@H](OCCO)[C@H](OC)C2)CC(=O)[C@H](C)/C=C(\C)[C@@H](O)[C@@H](OC)C(=O)[C@H](C)C[C@H](C)/C=C/C=C/C=C/1C` [everolimus], the “shift of knockout cells in image embedding (FIG. 16D)” value with knockout treated cells is listed as “induces knockout treated cells to revert back towards a healthy phenotype”.

Regarding `CC[C@H](C)C(=O)O[C@H]1C[C@@H](C)C=C2C=C[C@H](C)[C@H](CC[C@@H]3C[C@@H](O)CC(=O)O3)[C@H]21` [lovastatin], in assay [1], the “clustering in morphological embedding (FIGS. 18A, 18B)” value is given as “clustered close together” and the “clustering in manifold” value was “clustered proximity to previously seen drugs”.

Turning to `CN[C@@H]1C[C@H]2O[C@@](C)([C@@H]1OC)n1c3ccccc3c3c4c(c5c6ccccc6n2c5c31)C(=O)NC4` [staurosporine], the “location of treated neurons in embeddings (FIG. 10C)” value in assay [2] was “located separate from neurons treated with other small compounds”.
